In data set [1] the test system is A549 non-small cell lung human tumor cell line. The data set is described as follows: A549 tumor xenograft in athymic mice, antitumor activity. The data set is classed as in vivo. The settings on record: 41st day; for Δ MEAN TUMOR VOLUME: ± SEM. Here is the method:
(§1) The A549 non-small cell lung human tumor cell line is purchased from the American Type Culture Collection, Rockville, Md. The cell line is free of Mycoplasma contamination (Rapid Detection System by Gen-Probe, Inc., San Diego, Calif.) and viral contamination (MAP testing by MA BioServices, Inc., Rockville, Md.). The cell line is propagated and expanded in RPMI 1640 medium containing 10% heat-inactivated FBS (Life Technologies, Grand Island, N.Y.). Cell expansions for implantation are performed in cell factories (NUNC, purchased from Fisher Scientific, Springfield, N.J.). Cells are harvested at 50–90% confluency, washed once with HBSS containing 10% FBS, and suspended in 100% HBSS.
(§2) Outbred athymic (nu/nu) female mice (“Hsd:Athymic Nude-nu” from Harlan Sprague Dawley, Indianapolis, Ind.) are anesthetized with Metofane (Mallinckrodt Veterinary, Inc., Mundelein, Ill.), and 100 μL of the cell suspension containing 1×10^7 cells is injected subcutaneously into the right axillary (lateral) region of each animal. Tumors are allowed to grow for about 20 days until a volume of ˜100 mm^3 is achieved. At this point, mice bearing tumors with acceptable morphology and size are sorted into groups of eight for the study. The sorting process produces groups balanced with respect to mean and range of tumor size. Antitumor activity is expressed as % T/C, comparing differences in tumor volumes for treatment group (T) to vehicle control group (C).
(§3) CMD1 is administered intravenously, once daily 5×/week for three weeks, at doses of 10, 25, 50, or 100 mg/kg. The final DMSO concentration is 10%. Each test group has eight mice. Tumors are measured, and individual animal body weights recorded.
Example B3 repeated except CMD2 is used.

The subject of data set [2] is HDA partially purified from H1299 cells. In words: HDA enzyme assay, 3H-acetate release from acetylated histone H4 peptide. The data set is classed as biochemical, human. The settings on record: HDA partially purified from H1299, 37° C. 1.5 hr.
Procedure: HDA is partially purified from H1299, human non-small cell lung carcinoma cells (obtained from American Type Culture Collection, 12301 Parklawn Drive, Rockville, Md. 20852, USA). Cells are grown to 70–80% confluence in RPMI media in the presence of 10% FCS, harvested and lysed by sonication. The lysate is centrifuged at 23,420 g for 10–15 min, the supernatant is applied to a Hiload 26/10 High performance Q-sepharose column (Amersham Pharmacia Biotech), and equilibrated with a buffer containing 20 mM Tris pH8.0, 1 mM EDTA, 10 mM NH4Cl2, 1 mM μ-Mercaptoethanol, 5% glycerol, 2 μg/mL aprotinin, 1 μg/mL leupeptin, and 400 mM PMSF. Proteins are eluted in 4 mL aliquots with a linear gradient from 0–500 mM NaCl in the above buffer at a flow rate of 2.5 mL/min. Each preparation of partially purified HDA enzyme is titrated to determine the optimal amount needed to obtain a signal to noise ratio of at least 5 to 1. […] The compounds are serially diluted in DMSO to generate stocks at 20-fold of the assay concentrations. Final concentrations of compounds in the assay are 10 μM, 2 μM, 400 nM, 80 nM, and 16 nM with the final percentage of DMSO in each enzyme reaction equaling 0.1%. Each concentration of compound is assayed in duplicate. The substrate used in the reaction is a peptide of amino acid sequence, [sequence], corresponding to the twenty-four N-terminal amino acids of human histone H4, biotinylated at the N-terminus and penta-acetylated, at each lysine residue with ^3H-acetate. To initiate the reaction, the substrate is diluted in 10 μL of Buffer A (100 mM Tris pH 8.0, 2 mM EDTA), added to the enzyme mixture and collected at the bottom of the deep well plate by centrifugation for 5 minutes at 1500 rpm. Following centrifugation, the mixture is incubated at 37° C. for 1.5 hr. The reaction is stopped by the addition of 20 μL of the Stop Buffer (0.5N HCl, 0.08M Acetic Acid). At this point, the assay proceeds to the robotic extraction phase or is frozen for several days at −80° C.
The extraction of enzymatically cleaved ^3H-acetate groups from the reaction mixture is achieved with the solvent TBME (t-butyl methyl ether) using the Tomtec Quadra 96 workstation. A program is written to add 200 μL of TBME to a 96 “deep well” plate. The workstation is programmed to aspirate 50 μL of air followed by 200 μL of TBME and finally another 25 μL of air, which is dispensed into the each well of the plate. The contents of the deep well were mixed thoroughly by pipetting 160 μL up and down 10 times. Before addition of TBME to the reaction mixture, it is necessary to “pre-wet” the pipette tips with TBME to prevent the solvent from dripping during the transfer to the deep well plate. The organic and aqueous phases in the deep well are separated by centrifugation at 1500 rpm for 5 min. Opti-Phase Supermix liquid scintillation cocktail (200 μL) (Wallac) is added to each well of the 96-well Trilux plate (Wallac). […] The Trilux plate is covered with clear film and read on a 1450 MicroBeta Trilux liquid scintillation and luminescence counter (Wallac) with a color/chemical quench and dpm correction.
In order to determine the IC50 values, the data are analyzed on a spreadsheet. The analysis requires a correction for the background luminescence that is accomplished by subtracting the dpm values of wells without ^3H substrate from the experimental wells. […]
For data set [3], the system named is Normal Dermal Human Fibroblasts (NDHF). The data set is described as follows: Annexin V / propidium iodide staining (apoptosis), fluorescence microscopy. The settings on record: NDHF cells, 24 hour exposure. The data set is classed as cell-based. On the procedure: Annexin V binding was used as a marker for the early stages of apoptosis. A549,HCT116 and Normal Dermal Human Fibroblasts (NDHF) cells are treated separately with four compounds (CMD1, CMD2, CMD3 and CMD4) for 24 or 48 hours, stained with annexin V and compared to cells treated similarly with vehicle (DMSO). Cells are examined by fluorescence microscopy. […] Viability is assessed by the counterstain, propidium iodide. Cells detected by red fluorescence are not viable.

Data set [4] has as its system H1299 (human lung carcinoma cell). The data set is described as follows: Monolayer cell growth inhibition, MTS assay. Type of data set: cell-based. The settings on record: NCI-H1299, H1299, 72 hours compound treatment, lactate salts. An excerpt:
Cell lines H1299 (human lung carcinoma cell) and HCT116 (colon tumor cell) are obtained from the American Type Culture Collection, Rockville, Md. The cell lines are free of Mycoplasma contamination (Rapid Detection System by Gen-Probe, Inc., San Diego, Calif.) and viral contamination (MAP testing by MA BioServices, Inc., Rockville, Md.). The cell lines are propagated and expanded in RPMI 1640 medium containing 10% heat-inactivated FBS (Life Technologies, Grand Island, N.Y.). Cell expansions for implantation are performed in cell factories (NUNC, purchased from Fisher Scientific, Springfield, N.J.). Cells are harvested at 50–90% confluency, washed once with HBSS (Hank's Balanced Salt Solution) containing 10% FBS, and suspended in 100% HBSS.
Cell proliferation is measured with a commercial MTS kit (Promega, Madision, Wis.) assay using an adaptation of published procedures, for example, that disclosed in Feasibility of drug screening with panels of human tumor cell lines using a microculture tetrazolium assay, Alley M C, et al., Cancer Res. 1988; 48:589–601. Cells are plated in 96-well tissue culture dishes, with top and bottom rows left empty. H1299 and HCT116 cells are suspended in complete media at a density of 5.3×10^3 and 3.6×10^3 cell/mL, respectively, and 190 μl are added per well. Each cell line is added to one half of the plate. Complete medium (200 μL) is added to the top and bottom rows. Twenty-four hours later, 10 μl of MTS solution is added to one of the plates to determine the activity at the time of compound addition (T0). The plate is incubated at 37° C. for 4 hours and the OD490 is measured on a Molecular Devices Thermomax at 490 nm using the Softmax program. The T0 plate serves as a reference for initial activity at the beginning of the experiment.
Five serial dilutions (1:4) of each compound are made in a 96-deep well plate with the highest concentrations on the edge of plate. Two cell lines are tested with two compounds per plate.0 Ten microliters of each of the five dilutions are added in triplicate and complete medium alone is added to columns six and seven. The plates are incubated at 37° C. for 72 hours. The MTS solution is added (as for the T0 plate) and read four hours later.
In order to analyze the data, the average background value (media alone) is subtracted from each experimental well; the triplicate values are averaged for each compound dilution. The following formulas are used to calculate percent growth.
Lactate salts of N-hydroxy-3-[4-[[[2-(1H-indol-3-yl)-ethyl]-amino]methyl]phenyl]-2E-2-propenamide (CMD1), N-hydroxy-3-[4-[[(2-hydroxyethyl)[2-(1H-indol-3-yl)ethyl]-amino]methyl]phenyl]-2E-2-propenamide (CMD2), N-hydroxy-3-[4-[[[2-(5-methoxy-1H-indol-3-yl)-ethyl]-amino]methyl]pheny]-2E-2-propenamide (CMD3), N-hydroxy-3-[4-[[[2-(5-fluoro-1H-indol-3-yl)-ethyl]-amino]methyl]phenyl]-2E-2-propenamide (CMD4), N-hydroxy-3-[4-[[[2-(benzofur-3-yl)-ethyl]-amino]methyl]phenyl]-2E-2-propenamide (CMD5) having a purity of higher than 95% are dissolved in pure dimethylsulfoxide (DMSO) to create a stock solution. The stock solution is diluted with 5% dextrose injection, USP, just prior to dosing.
(In general: Tetrazolium assays rely on reduction of a dye to a coloured formazan, in cell work by metabolically active cells.)

Data set [5] can be described thus: Body weight change of HCT116 tumor-bearing athymic mice. Type of data set: in vivo. The settings on record: 34th day, ± SEM. Here is the method:
as §2, §3
(§4) Example B3 is repeated except the HCT116 colon tumor cell line is used in place of the A549 cell line. The HCT116 cell line is also obtained from American Type Culture Collection, Rockville, Md., and the cell line is free of Mycoplasma contamination and viral contamination.
(§5) Example B4 is repeated except the HCT116 colon tumor cell line is used in place of the A549 cell line. The HCT116 is also obtained from American Type Culture Collection, Rockville, Md., and the cell line is free of Mycoplasma contamination and viral contamination.

In data set [6] the test system is HCT116 colon tumor cell line. The data set is described as follows: HCT116 tumor xenograft in athymic mice, antitumor activity. The settings on record: Table B5, HCT116, 100 mg/kg i.v., 34th day. Type of data set: in vivo. Here is the method:
as §1, §2, §3, §4, §5

[7] abbreviates: A549, 10 mg/kg i.v. once daily 5×/week for three weeks.
[8] abbreviates: A549, 25 mg/kg i.v. once daily 5×/week for three weeks.
The mark [9] stands for this setting: A549, 50 mg/kg i.v. once daily 5×/week for three weeks.
Where [10] appears, read: A549, 100 mg/kg i.v. once daily 5×/week for three weeks.

These results are taken from US7067551B2, “Deacetylase inhibitors” (Novartis AG, priority 2000, dated 2006).

As to `O=C(/C=C/c1ccc(CNCCc2c[nH]c3ccccc23)cc1)NO` [CMD1, N-hydroxy-3-[4-[[[2-(1H-indol-3-yl)-ethyl]-amino]methyl]phenyl]-2E-2-propenamide], the “% T/C” value in data set [1] (setting [7]) came to 32%; in data set [1] (setting [8]) it was 20%; in data set [1] (setting [9]) it was 15%; in data set [1] (setting [10]), 7%; in data set [6], 18%. In addition, the “Δ MEAN TUMOR VOLUME” value was 121 ± 27 mm^3 in data set [1] (setting [7]); 77 ± 32 mm^3 in data set [1] (setting [8]); 57 ± 10 mm^3 in data set [1] (setting [9]); 28 ± 25 mm^3 in data set [1] (setting [10]); 140 ± 38 mm^3 in data set [6] (± SEM). The results for the IC50 in data set [2] and in data set [4] were 32 nM and 400 nM, respectively. The “annexin V staining” value in data set [3] is on record as “do not show noticeable annexin V staining”. Besides, the “Δ % BODY WEIGHT” value is recorded as −7.4 ± 0.8% in data set [5] (Table B5, HCT116, 50 mg/kg i.v., seven mice) and −3.2 ± 0.4% in data set [5] (Table B5, HCT116, 100 mg/kg i.v.).

The term IC50 denotes the concentration at which inhibition is half-maximal.
